Source: PMC10082216 (Nature Communications, 2023)
Like-named read-outs stand apart in the source and are kept apart here.

Assays:
[1] = system: mature stage V gametocytes (NF54 strain); assay: microbe, parasite or virus in culture; assay type: cell-based, Plasmodium falciparum; details: for Retention IC10: Fig. 3 dose-response; for IC50 / IC90: Plasmodium falciparum; for IC90: NF54, read-out: Retention IC90
Outline: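 NF54 stage V gametocytes (day 17, density-purified, 0.5% hematocrit) exposed 24 h to compounds at 1.11 µM (primary) or in dose-response. Killing scored by MitoTracker staining; gametocytemia by Sybr Green/CellMask staining, with microsphiltration for stiffening. DMSO 0.05% negative control.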

[2] = Hit scoring on safety in human subjects and pharmacokinetics; details: for Score (PK): peak plasma concentration vs IC50
Source text: Hits from the ReFrame library were further selected based on safety, preferably oral administration (high score if oral), and potential availability for widespread use.

[3] = NF54, 24 h, read-out: Stiffening IC50 (retention)

SMILES: CNC(=O)N1C[C@@H](C)N(c2ccc(C(=O)Nc3ccc(-c4ccc(-c5c[nH]c([C@@H]6CCCN6C(=O)[C@@H](NC(=O)OC)C(C)C)n5)cc4)c(OC(F)(F)F)c3)cn2)C[C@@H]1C [TD-6450]
- outcome of primary screen (hit definition) ([1]; 1.11 µM): met the hit definition
- Retention 1 ([1]; Concentration 0.00457): 6.791
- Retention 2 ([1]; Concentration 0.00457): 14.2035
- Retention 1 ([1]; Concentration 0.01372): 30.2208
- Retention 2 ([1]; Concentration 0.01372): 10.7025
- Retention 1 ([1]; Concentration 0.04115): 30.7002
- Retention 2 ([1]; Concentration 0.04115): 37.9062
- Retention 1 ([1]; Concentration 0.12346): 45.793
- Retention 2 ([1]; Concentration 0.12346): 33.0106
- Retention 1 ([1]; Concentration 0.37037): 16.5379
- Retention 2 ([1]; Concentration 0.37037): 35.496
- Retention 1 ([1]; Concentration 1.11111): 46.8849
- Retention 2 ([1]; Concentration 1.11111): 58.9321
- Retention 1 ([1]; Concentration 3.33333): 60.4317
- Retention 2 ([1]; Concentration 3.33333): 53.8901
- Retention 1 ([1]; Concentration 10): 70.8882
- Retention 2 ([1]; Concentration 10): 66.7706
- Retention IC10 [1]: 30 nM
- IC50 [1, 3]: 550 nM
- IC50 ([1]; NF54, read-out: IC50 during the screening campaign, all gametocytes stained): 455 ± 304 nM
- IC90 [1]: 4500 nM
- differential retention rate versus DMSO upon primary screening ([1]; one well/compound, 1.11 µM): 32%
- Score (safety) [2]: 3
- Score (PK) [2]: 3 (Peak plasma concentration between IC50 and 3 IC50 (Score = 3))

SMILES: COc1cc2c(cc1OC)[C@@H]1Cc3ccc(OC)c(OC)c3CN1CC2 [(S)-(-)-Tetrahydropalmatine]
- Retention 1 ([1]; Concentration 0.00457): 36.1518
- Retention 2 ([1]; Concentration 0.00457): 18.1904
- Retention 1 ([1]; Concentration 0.01372): 42.4295
- Retention 2 ([1]; Concentration 0.01372): 17.9082
- Retention 1 ([1]; Concentration 0.04115): 39.0679
- Retention 2 ([1]; Concentration 0.04115): 21.6203
- Retention 1 ([1]; Concentration 0.12346): 52.9692
- Retention 2 ([1]; Concentration 0.12346): 17.6021
- Retention 1 ([1]; Concentration 0.37037): 34.5737
- Retention 2 ([1]; Concentration 0.37037): 33.9194
- Retention 1 ([1]; Concentration 1.11111): 41.4215
- Retention 2 ([1]; Concentration 1.11111): 25.646
- Retention 1 ([1]; Concentration 3.33333): 50.7426
- Retention 2 ([1]; Concentration 3.33333): 20.0803
- Retention 1 ([1]; Concentration 10): 49.3139
- Retention 2 ([1]; Concentration 10): 22.5855
- IC50 [1, 3]: 1 nM
- IC90 [1]: 6 nM
- Score (safety) [2]: 3
- Score (PK) [2]: 6 (Peak plasma concentration higher than 3 IC50 (Score = 6))

SMILES: C[C@H]1Cc2c([nH]c3cc(Cl)c(F)cc23)[C@@]2(N1)C(=O)Nc1ccc(Cl)cc12 [NITD609, cipargamin]
- Retention 1 ([1]; Concentration 0.00457): 5.495
- Retention 2 ([1]; Concentration 0.00457): 24.2833
- Retention 1 ([1]; Concentration 0.01372): 19.4986
- Retention 2 ([1]; Concentration 0.01372): 27.3994
- Retention 1 ([1]; Concentration 0.04115): 24.1896
- Retention 2 ([1]; Concentration 0.04115): 16.3872
- Retention 1 ([1]; Concentration 0.12346): 74.5556
- Retention 2 ([1]; Concentration 0.12346): 59.61
- Retention 1 ([1]; Concentration 0.37037): 100
- Retention 2 ([1]; Concentration 0.37037): 100
- Retention 1 ([1]; Concentration 1.11111): 100
- Retention 2 ([1]; Concentration 1.11111): 94.1314
- Retention 1 ([1]; Concentration 3.33333): 100
- Retention 2 ([1]; Concentration 3.33333): 100
- Retention 1 ([1]; Concentration 10): 100
- Retention 2 ([1]; Concentration 10): 100
- Retention IC10 [1]: 60 nM
- IC50 [1, 3]: 110 nM
- IC90 [1]: 160 nM
- Score (safety) [2]: 3
- Score (PK) [2]: 6 (Peak plasma concentration higher than 3 IC50 (Score = 6))
